Experimental findings from patent EP0092121A1, “Methods and compositions for treating gastro-intestinal ulcer diesease” (BOARD OF REGENTS THE UNIVERSITY OF TEXAS SYSTEM, priority 1982, dated 1983) are described below.

This test relates to acute pylorus-ligated rat preparation. The test can be described thus: In vivo protection against acid-induced gastric damage in HCl-challenged rats (gross examination, gastric hemoglobin). The following applies: individual phospholipid, gastric sample hemoglobin after 0.6 N HCl. On the procedure:
Applicants directly investigated this question in an acute pylorus-ligated rat preparation, in which test agents could be administered directly into the stomach by way of an esophageal cannula. Rats were fasted overnight and maintained under Nembutal anesthesia throughout the study period. The rats were divided into two groups (3 rats/grp); one group which was designated "surfactant treated" received 0.5 ml of a liposomal suspension in saline of the following phospholipids: […], 15 µg of DPPE, DPPG, DPPI and Sphingomyelin; and the second group (controls) was intragastrically injected with 0.5 ml of saline. Five minutes later both groups received 1 ml of an ulcerogenic dose of 0.6 N HCI. The anesthetized animals were left undisturbed for 45 minutes, after which they were sacrificed, and the stomachs excised, opened along the greater curvature and examined.
In another series of in vivo experiments, the individual phospholipids: dipalmitoyl lecithin, dipalmitoyl phosphatidyl ethanolamine, and phosphatidyl choline were tested for anti-ulcer activity. The experiments were performed as described above. In addition, immediately before the rat was sacrificed, a gastric sample was withdrawn for hemoglobin analysis. […] Sample anti-ulcer activity was measured as a percent of hemoglobin count relative to hemoglobin detected from animals pretreated with the combination of 135 µg DPL, 15 µg of DPPE, DPPG, DPPI and sphingomyelin mixture.
Anti-ulcer activity was inversely proportional,to the amount of hemoglobin detected. Table I tabulates the relative anti-ulcer activity of the individually tested phospholipids.

Turning to `CCCCCCCCCCCCCCCC(=O)OCC(COP(=O)([O-])OCC[N+](C)(C)C)OC(=O)CCCCCCCCCCCCCCC` (stereo not drawn) [Dipalmitoyl lecithin, dipalmitoyl lecithin], the “ACTIVITY (anti-ulcer activity, hemoglobin count relative to mixture)” value worked out at 95% (15 µg) and 90% (135 µg).

Turning to “phosphatidylcholine [Phosphatidyl choline]”, the “ACTIVITY (anti-ulcer activity, hemoglobin count relative to mixture)” value (15 µg) is given as 80% and the “ACTIVITY (anti-ulcer activity, hemoglobin count relative to mixture)” value (135 µg) stood at 80%.

For `CCCCCCCCCCCCCCCC(=O)OCC(COP(=O)(O)OCCN)OC(=O)CCCCCCCCCCCCCCC` (stereo not drawn) [Dipalmitoyl phosphatidyl ethanolamine, dipalmitoyl phosphatidyl ethanolamine], the “ACTIVITY (anti-ulcer activity, hemoglobin count relative to mixture)” value reads like this: (15 µg) 75-80%; (135 µg) 70%.
